Columns and labels:
[1] = test system: Human ciliated epithelium cells
Method: The toleration of liposomal PVP-iodine solutions for nasal applications was studied by investigating the influence of different test substances on ciliated epithelium cells, the most sensible cells of the mucous membrane. A cytotoxic damage of these cells which would cause a restriction of the niucoclliar clearance can. be determined by a detectable decrease of the ciliary vibration.
Human ciliated epithelium cells were analysed by an in-vitro method which enables the determination of the ciliary activity or ciliary vibration. The corresponding cells were exposed and incubated with 100 je.I test substance at a temperature of 37 C. After an incubation period of 5 minutes the ciliary vibration, was measured.
By using this in-vltro method a nutriant solution (Dulbeco) as standard, a 0.2% chlorohexidine solution (typical antiseptic agent), conventional polyvidone iodine solutions (Betaisodona) .of different concentrations (5.0%, 2.5% and 1.25% PVP-iodine) and a liposomal solution containing 4.5% of PVP-iodine were tested.

human viruses = details: aqueous solution mixed with viral suspensions; cited from earlier work

Row | Compound | ciliary activity / ciliary vibration [1] | antiviral effect on viral suspensions (human viruses)
1 | N=C(NCCCCCCNC(=N)NC(=N)Nc1ccc(Cl)cc1)NC(=N)Nc1ccc(Cl)cc1 [chlorohexidine] | decrease of the measured ciliary vibration | 
2 | poly(1-vinyl-2-pyrrolidin-2-on)-iodine complex [PVP-iodine] |  | effective antiviral compound

Source: patent US20150313934A1, “Use of PVP-Iodine Liposomes for Treatment of Herpes” (priority 2003, published 2015)
